Reference: patent publication US4956381A, “Treating tissue calcium depletion or degenerative processes in bone or cartilage” (Sandoz Ltd., priority 1987, dated 1990)

How the values were obtained:
[1] = test system: mouse peritoneal macrophages; assay: Mouse macrophage monokine inhibition (chondrocyte bioassay); assay type: cell-based; settings: 24 h, substantially pure Z-isomeric form, 3-5 separate experiments in triplicate, read-out: ED50 (suppression of monokine release)
Protocol: Purified IL-1, [Schnyder et al., J. Immunol. […] [c.f. […] J. Rheumatol.
Culture media are diluted 1:1 (v:v) with fresh medium and added to confluent rabbit chondrocytes. […] activity in the chondrocyte culture medium is monitored after a further two days.

human monocytes = assay: LAF-test (thymocyte proliferation), monokine production by human monocytes; assay type: cell-based; settings: Monocyte, substantially pure Z-isomeric form, 2 separate experiments, 3 parallel determinations, read-out: ED50 (inhibition of monokine production)
Protocol: Mononuclear cells are obtained from the blood of healthy volunteers via centrifugation and cultivated on tissue culture dishes with test compound at varying concentrations [Schnyder et al., J. Immunol., 138, 496-503 (1987)]. The non-adherent lymphocytes are removed after 4 hours by washing several times. Fresh medium, test compound and lipopolysaccharide (LPS) as stimulant are added and the monocytes incubated for further 19 hours. The pooled culture media are diluted 1:10 (v:v) with fresh medium and added to confluent rabbit chondrocytes. MP activity in the chondrocyte culture medium is assayed after a further 2 days. COMPOUNDS OF THE INVENTION, in particular compounds D2 and K1, are active in suppressing monokine release in the above test method at concentrations of the order of from about 30 to about 100 μM. Thus determined ED50 S for the compounds D2 and K1 each in substantially pure Z-isomeric form in a series of 3 or 7 separate experiments each with 3 parallel determinations are, for both compounds, of the order of 60 to 100 μM.
Lymphocyte proliferation is the standard test for monokine activity. […] The cells are incubated for 2 days in 96-well culture plates and the proliferation rate determined using a ^3 H-thymidine pulse (1 μC/well) during the final 6 hours. The incorporated radioactivity is collected on filter paper and counted. […]

recombinant human IL-2 = assay: Recombinant human IL-2 induced mouse thymocyte proliferation; assay type: cell-based; settings: 10 ng/ml rh IL-2
Protocol: (§1) Lymphocyte proliferation is the standard test for monokine activity. It is highly sensitive, though relatively unspecific, with IL-2, phorbol myristate acetate, concanavalin A' g-type-prostaglandin and indomethacin-nall effecting disturbance. Human monocyte culture media are prepared as described under I.I.b. above, diluted 1:10, 1:20 and 1:40 (v:v), and added to […] (obtained from C3H/HeJ mice) Dulbecco's modified Eagle's medium, containing 20 mM hydroxyethyl-piperazin-ethane-sulfonic acid, 12 mM NaHCO3, 2 mM glutamine, 2% foetal bovine serum, 10 μM 2-mercaptoethanol, […] and antibiotics. The cells are incubated for 2 days in 96-well culture plates and the proliferation rate determined using a ^3 H-thymidine pulse (1 μC/well) during the final 6 hours. The incorporated radioactivity is collected on filter paper and counted. […] Thus determined ED50 s for the compounds D2 and K1 each in substantially pure Z-isomeric form in a series of 2 separate experiments each with 3 parallel determinations are of the order of 30 μM
(§2) In order to rule out an antagonistic effect or a direct influence of the COMPOUNDS OF THE INVENTION on the proliferation of mouse thymocytes which are used above in the LAF-test, the effect of the COMPOUNDS OF THE INVENTION on the incorporation of ^3 H-thymidine Is determined after thymocyte stimulation with recombinant human IL-1 or IL-2.

recombinant human IL-1 = assay: Recombinant human IL-1 induced mouse thymocyte proliferation; assay type: cell-based; settings: 75 ng/ml rh IL-1
Protocol: as §1, §2

monocytes = assay: Effect on monocyte adherence; assay type: cell-based, human; settings: 4 h; DNA and LDH of adherent monocytes
Protocol: Monocytes of freshly harvested human mononuclear cells are prepared in presence of the compound to be tested or a vehicle. After 4 h the medium is aspirated and the cell monolayer is washed as usual. The adherent monocytes are then lysed using digitonin in water, and the amount of DNA and the activity of the cytosol enzyme LDH is measured.

adjuvant arthritis = assay: Disease modifying activity in an animal model of rheumatoid arthritis (adjuvant arthritis); assay type: in vivo, rat; settings: substantially pure Z-isomeric form
Protocol: Following induction of adjuvant arthritis in 48 adult female rats, the test compound is administered orally for 40 days. Articular swelling and bone densitometry are measured at days 10, 20, 30 and 40 and compared with control animals receiving placebo. In addition, cartilage glycosaminoglycans (GAG) are measured in femoral condyles removed on completion of the treatment period. α2 -Macroglobulin is determined in serum on days 0, 3, 6, 9, 16 and 22.
The procedure for in vivo estimation of bone density in adult rats as used in the above test method is based on the radiographic densitometric method described by Albanese et al. in J. Amer. Ger. Soc. 17, 142-153 (1969). A longitudinal bone survey is conducted in the arthritic rats during the treatment with the test substance and compared with untreated arthritic rats and control animals. In vivo quantitative radiographic scanning is performed taking the trabecular mass as the parameter. […] Because of the characteristics of the system (image darkening representing increased Relative Optical Density) the recorded values are expressed as (1-x) where x Is the experimentally measured ROD in order to conform to the biological effect of X-rays on bone tissue (i.e. film darkening indicates decrease in bone density). […]

periodontal disease = assay: Clinical trial III: calcium resorption - periodontal disease; assay type: in vivo, human; settings: ca. 400 to 1200 mg p.o./day or injection ca. 0.5 or 1.0 to 5.0 mg per gum pouch; after ca. 2 to 3 weeks
Protocol: COMPOUND OF THE INVENTION, e.g. compound D2 or K1 in substantially pure Z-isomeric form, is administered at dosages of from ca. 400 to 1200 mg/p.o./day administered once or in divided dosages up to 4x daily, or by injection into the gum at the site of disease at dosages of the order of about 0.5 or 1.0 to about 5.0 mg into each gum pouch. The subjects are examined at regular weekly or 2x weekly intervals for disease progression.

[2] = test system: psoriatic arthritis or seronegative spondylarthrosis or osteoarthrosis; assay: Clinical trial IV: degenerative joint disease; assay type: in vivo, human; settings: ca. 200 to 1200 mg p.o./day, 8 weeks
Protocol: COMPOUND OF THE INVENTION, e.g. compound D2 or K1 in substantially pure Z-isomeric form, is administered at dosages of from ca. 200 to 1200 mg/p.o./day, once or in divided dosages up to 4×daily for 8 weeks. The subjects are examined at a regular interval of 2 weeks for disease progression on parameters such as pain sensation at the joints, evaluation of the functional capacity according to Steinbrocker, hand grip strength or Richtie Index.

[3] = Acute toxicity (LD50) in rats; settings: rat, in vivo, substantially pure Z-isomeric form
beagle dogs = assay: Tolerability / pilot toxicology in beagle dogs; assay type: in vivo; settings: up to 200 mg/kg/day for 26 weeks
[4] = 3H-thymidine incorporation, mouse thymocytes

Compound: COC1=Cc2ccccc2/C(=C/C(=O)O)c2ccsc21 [Compound D2, [10-Methoxy-4H-benzo[4,5]cyclohepta[1,2-b]thiophen-4-ylidene]-acetic acid]
- IC50 [1]: ~100 µM
- IC50 (human monocytes): ~30 µM
- concentration dependency of influence on rh IL-2 induced proliferation (recombinant human IL-2): no concentration dependency is detectable
- influence on recombinant human IL-2 induced proliferation (recombinant human IL-2; [4]): no significant influence
- concentration dependency of influence on rh IL-1 induced proliferation (recombinant human IL-1): no concentration dependency is detectable
- influence on recombinant human IL-1 induced proliferation (recombinant human IL-1; [4]): no significant influence
- adherence of the monocytes (monocytes): neither the COMPOUNDS OF THE INVENTION, in particular compound D2, nor the vehicle reduce the adherence of the monocytes
- protective effect on cartilage and bone (adjuvant arthritis; rats with adjuvant arthritis): show a protective effect on cartilage and bone in rats with adjuvant arthritis
- disease modifying activity (adjuvant arthritis; especially after 30 days treatment): exhibit disease modifying activity especially after a period of 30 days treatment
- condition (periodontal disease) (periodontal disease): marked improvement in condition after ca. 2 to 3 weeks continuous therapy
- condition (degenerative joint disease) [2]: improvement in condition after the 8 week treatment period
- LD50 at 168 h ([3]; iv, 7 days): 50 mg/kg
- LD50 at 336 h ([3]; po, 14 days): 1720 mg/kg
- tolerability (beagle dogs): generally well tolerated
